Experimental data published in paper PMC3726451, “Coumestrol from the national cancer Institute’s natural product library is a novel inhibitor of protein kinase CK2” (BMC Pharmacology & Toxicology, 2013).

Columns and labels:
[1] = target: T1, vascular endothelial growth factor receptor 3 (VEGFR3) (Homo sapiens, UniProt P35916); test: ADP-Glo kinase selectivity panel, single concentration […] with […] ATP; format: biochemical
T1 construct: gene FLT4

[2] = target: T2, Casein kinase 2 (CK2) (Homo sapiens, UniProt P68400); test: ADP-Glo kinase assay, single concentration […], duplicates; format: biochemical; settings: read-out: % inhibition at 10 μM
T2 construct: gene CSNK2A1
T2 sequence (P68400 whole entry): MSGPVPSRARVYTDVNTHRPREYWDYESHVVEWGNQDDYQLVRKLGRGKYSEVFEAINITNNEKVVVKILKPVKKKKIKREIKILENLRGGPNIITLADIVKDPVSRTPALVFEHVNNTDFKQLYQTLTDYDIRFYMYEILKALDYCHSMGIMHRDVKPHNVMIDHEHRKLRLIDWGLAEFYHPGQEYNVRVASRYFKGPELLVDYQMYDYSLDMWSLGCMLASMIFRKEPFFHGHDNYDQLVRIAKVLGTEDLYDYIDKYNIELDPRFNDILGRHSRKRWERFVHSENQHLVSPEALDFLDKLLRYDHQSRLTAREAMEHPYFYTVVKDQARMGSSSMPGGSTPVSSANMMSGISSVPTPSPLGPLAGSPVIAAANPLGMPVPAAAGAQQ
T2 sequence (P67870 2-215 partner): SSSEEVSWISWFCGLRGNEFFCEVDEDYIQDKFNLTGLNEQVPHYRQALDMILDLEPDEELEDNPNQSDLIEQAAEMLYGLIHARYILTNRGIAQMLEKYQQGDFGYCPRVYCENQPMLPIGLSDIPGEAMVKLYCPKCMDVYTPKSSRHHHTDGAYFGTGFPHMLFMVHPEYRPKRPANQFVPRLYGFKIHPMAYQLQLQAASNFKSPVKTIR

T1 sequence (P35916 25-1363): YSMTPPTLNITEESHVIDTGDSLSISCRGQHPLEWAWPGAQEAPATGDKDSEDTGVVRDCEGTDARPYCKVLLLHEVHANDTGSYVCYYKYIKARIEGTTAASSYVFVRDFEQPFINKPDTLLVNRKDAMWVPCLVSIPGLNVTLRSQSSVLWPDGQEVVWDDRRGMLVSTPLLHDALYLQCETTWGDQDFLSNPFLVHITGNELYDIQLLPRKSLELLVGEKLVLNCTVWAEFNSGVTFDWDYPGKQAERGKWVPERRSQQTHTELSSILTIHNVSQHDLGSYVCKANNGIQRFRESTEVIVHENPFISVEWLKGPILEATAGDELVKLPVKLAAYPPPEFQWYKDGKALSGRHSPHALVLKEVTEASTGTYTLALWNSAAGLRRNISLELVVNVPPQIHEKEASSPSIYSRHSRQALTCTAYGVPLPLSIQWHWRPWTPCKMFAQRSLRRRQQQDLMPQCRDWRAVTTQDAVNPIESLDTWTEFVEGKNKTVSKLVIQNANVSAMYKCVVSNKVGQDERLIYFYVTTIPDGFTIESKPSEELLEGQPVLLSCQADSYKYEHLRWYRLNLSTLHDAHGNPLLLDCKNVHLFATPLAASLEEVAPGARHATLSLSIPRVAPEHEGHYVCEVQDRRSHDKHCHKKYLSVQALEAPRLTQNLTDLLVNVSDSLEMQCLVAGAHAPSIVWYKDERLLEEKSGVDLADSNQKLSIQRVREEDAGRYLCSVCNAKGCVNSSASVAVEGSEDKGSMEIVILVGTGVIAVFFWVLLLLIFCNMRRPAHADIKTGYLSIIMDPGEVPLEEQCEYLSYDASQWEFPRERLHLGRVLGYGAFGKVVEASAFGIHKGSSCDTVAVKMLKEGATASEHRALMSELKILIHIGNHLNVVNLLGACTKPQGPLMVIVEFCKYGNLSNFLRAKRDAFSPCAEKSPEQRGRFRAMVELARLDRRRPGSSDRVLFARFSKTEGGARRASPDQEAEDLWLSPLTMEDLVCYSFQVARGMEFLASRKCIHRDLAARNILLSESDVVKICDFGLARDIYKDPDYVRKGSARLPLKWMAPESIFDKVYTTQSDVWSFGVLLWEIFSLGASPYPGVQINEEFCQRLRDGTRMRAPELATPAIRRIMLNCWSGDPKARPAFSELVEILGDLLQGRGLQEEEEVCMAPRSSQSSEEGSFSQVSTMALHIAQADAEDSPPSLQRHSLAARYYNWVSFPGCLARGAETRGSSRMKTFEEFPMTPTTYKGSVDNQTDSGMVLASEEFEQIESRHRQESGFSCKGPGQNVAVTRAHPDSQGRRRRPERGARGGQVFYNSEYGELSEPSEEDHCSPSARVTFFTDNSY

SMILES | inhibition at 10 µM [1] [%] | inhibition at 10 µM [2] [%]
O=c1oc2cc(O)ccc2c2oc3cc(O)ccc3c12 [1-F4, 3,9-Dihydroxy-6-benzofurano [3,2-c]chromenone] | 59 | –
COc1cc(/C=C/C(=O)CC(=O)/C=C/c2ccc(O)c(OC)c2)ccc1O [1-D6, (1E,6E)-1,7-Bis(4-hydroxy-3-methoxyphenyl)-1,6-heptadiene-3,5-dione] | – | > 50
COc1cccc2c1cc([N+](=O)[O-])c1c(C(=O)O)cc3c(c12)OCO3 [1-F3, 8-methoxy-6-nitro phenanthro[3,4-d] [1, 3] dioxole-5-carboxylic acid] | – | > 50
